Columns and labels:
MCF7 breast cancer cells = assay: Tumor Burden, MCF7 tumors in mice; assay type: in vivo, Nod/Scid-gamma null immunocomprimised mice
Protocol: MCF7 breast cancer cells grown were innoculated into Nod/Scid-gamma null immunocomprimised mice. The resulting tumors were allowed to reach approximately 100 mm^3 in size and then mice were randomized into vehicle, Faslodex®, 0032661, or Faslodex® plus 0032661 treatment groups. Faslodex® treated mice were dosed with 500 ug Faslodex® once a week via intramuscular injection. 0032661 treated mice were dosed with 35 mg/kg 0032661 five days a week via intraparatoneal injection. Tumors were measured by calipers twice a week.

[1] = system: androgen receptor response gene (PSA) in LNCaP prostate cancer cells; assay: Inhibition of Androgen Receptor Target Gene Transcription (PSA qPCR); assay type: cell-based; conditions: 10 nM DHT, 4 hours, 10 uM bicalutamide, 10 uM enzalutamide, 12.5 or 25 uM 0032661
Protocol: After 4 hours, RNA was harvested and converted into cDNA. qPCR analysis for PSA was performed on all samples and normalized to expression of GAPDH. The data, shown in FIG. 11, is expressed as fold change relative to PSA expression of the cFBS sample.

[2] = system: Androgen Receptor (AR) luciferase reporter in LNCaP prostate cancer cells; assay: LNCaP ARE Luciferase Assay; assay type: cell-based; conditions: 10 nM DHT, 4 hours, 1 uM bicalutamide, 1 uM enzalutamide, 5 or 10 uM 0032661
Protocol: LNCaP prostate cancer cells as well as LNCaP cells that overexpress the oncogenic androgen receptor splice variant (designated ARV7) were engineered to express an Androgen Receptor (AR) luciferase reporter (SABiosciences). […] After 4 hours, cell lysate was harvested. 50 μg protein lysates were used in a luciferase assay.

Rac1 protein = molecular target: T1, Rac1 protein (Homo sapiens, UniProt P63000); assay: Fluorescence Polarization Assay (Rac1 FP); assay type: binding; conditions: 125 nM his-tagged Rac1, 12.5 nM Bodipy-TR GTPγS, 30 minutes at 37° C.
T1 construct: purchased Cytoskeleton Inc. RC01
How it was run: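 His-tagged recombinant Rac1 (125 nM final) plus 12.5 nM Bodipy-TR GTPγS incubated with serially diluted compound for 30 min at 37 °C. Buffer: 20 mM Tris pH 7.5, 50 mM NaCl, 1 mM MgCl, 1 mM EDTA. Fluorescence polarization read at 590/625 nm excitation/emission.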

[3] = system: estrogen receptor response gene (SDF) in MCF7 breast cancer cells; assay: Inhibition of Estrogen Receptor Target Gene Transcription (SDF qPCR); assay type: cell-based; conditions: MCF7, 10 nM estradiol, 4 hours
Protocol: After 4 hours, RNA was harvested and converted into cDNA. qPCR analysis for SDF was performed on all samples and normalized to expression of GAPDH. The data, shown in FIG. 7, is expressed as fold change relative to SDF expression of the cFBS sample.

[4] = system: estrogen receptor response genes Cyclin D1 and pS2 in MCF7 breast cancer cells; assay: Inhibition of Estrogen Receptor Target Gene Protein Expression (immunoblot); assay type: cell-based; conditions: MCF7, 10 nM E2, 18 hours
Protocol: After 18 hours, protein was harvested. SDS-PAGE followed by immunoblotting of samples was performed using standard techniques. Protein lysates were immunoblotted for Estrogen Receptor (ER), Cyclin D1, pS2, and Actin.

[5] = system: PSA in LNCaP prostate cancer cells; assay: Inhibition of Increased Protein Levels of PSA (immunoblot); assay type: cell-based; conditions: 10 nM DHT, 18 hours, 5 uM enzalutamide, 10, 15 or 20 uM 0032661
Protocol: After 18 hours protein was harvested. SDS-PAGE followed by immunoblotting of samples was performed using standard techniques. Protein lysates were immunoblotted for the Androgen Receptor (AR), PSA, and Actin.

[6] = 1 uM fulvestrant, 5 or 10 uM 0032661

FC(F)(F)c1ccc2c(SCCCCCCn3cnc(CN4CCOCC4)c3)ccnc2c1 [Compound 0032661, 4-[[1-[6-[[7-(trifluoromethyl)-4-quinolyl]sulfanyl]hexyl]imidazol-4-yl]methyl]morpholine]
tumor burden, combination (MCF7 breast cancer cells; 500 ug Faslodex once a week intramuscular plus 35 mg/kg 0032661 five days a week): reduces tumor burden more than either single treatment alone
anti-tumoral effect (tumor size by calipers) (MCF7 breast cancer cells; 35 mg/kg five days a week, intraperitoneal): strong anti-tumoral effects
androgen receptor target gene transcription (PSA) [1]: inhibit the androgen receptor target gene transcription
androgen receptor luciferase expression (fold activation) [2]: inhibit the androgen receptor luciferase expression
IC50 (Rac1 protein): 3.25 µM
SDF gene expression, combination ([3]; 1 uM fulvestrant plus 5 uM 0032661): reduces SDF gene expression more than either single treatment alone
estrogen receptor target gene transcription (SDF) [3, 6]: inhibit the estrogen receptor target gene transcription
estrogen receptor target gene protein expression, combination ([4]; 1 uM fulv plus 5 uM 0032661): reduces estrogen receptor target gene protein expression more than either single treatment alone
protein levels of estrogen receptor target genes (Cyclin D1, pS2) [4, 6]: inhibit the increase in protein levels of estrogen receptor target genes
increase in protein levels of PSA [5]: inhibit the increase in protein levels of PSA

Source: patent US10472352B2, “Rac inhibitors” (Geneyus LLC, priority 2017, dated 2019)
